What was measured:
Format in all cases: in vivo
Pythium graminicola = assay: Test 4: control effect against rice damping-off by the Pythium fungus (soil lavage); conditions: 1,000 ppm, 2.5 ml test suspension drenched on contaminated soil, rice (koshihikari)
Description: A 10% wettable powder created according to the Pharmaceutical Formulation Example 1 was diluted with a Tween20 solution prepared to a concentration of 1/5000, then the compound of formula [1] was prepared to a concentration of 4 ppm. Further, the compound of formula [1] in Test 4 was adjusted to a concentration of 1,000 ppm.
<Test 4 Test of Control Effect Against Rice Damping-Off by the Pythium Fungus (Soil Lavage)>
Distilled water was added to the flora of Pythium graminicola cultured in bentoglass seed culture and stirred with a mixer, and adjusted the contaminated soil to 5 g of bacteria against 1 kg of soil.
In a cell tray having 31×31 mm^2 per cell, 20 ml of the contaminated soil was filled in each cell, and 3 seeds of rice chaff that has been forced to sprout (Species: koshihikari) were seeded, and 5 ml of soil was added for covering, then 2.5 ml of test suspension was drenched, and the seeds were incubated in a moist chamber adjusted to 28° C. for 72 hr to induce sprouting. Then, in a low temperature room of 5° C., the onset of disease was induced for 2 days, then the disease was nurtured for 14 days in a room of 25° C.
The soil was washed, and the apoptosis strain, growth restrained strain, and a healthy strain were measured and the onset rate was calculated by the following formula. Onset rate=[Σ(onset strain number by level×onset index)/(investigated strain×3)]×100 [Onset Index]
1: Growth restrained strain
Also, the following formula was used to compute the control value from the obtained onset index. control value={1−onset area rate at the section applied the test agent/onset area rate of untreated section}×100 Computational formula of the control value: […]

[1] = system: Pseudoperonospora cubensis; assay: Test 2: control effect against cucumber downy mildew; conditions: Pseudoperonospora cubensis, 120 h, control value vs untreated section
In short: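 Cucumber (Sagami hanjiro) at 2-leaf stage sprayed with 4 ppm compound from 10% wettable powder in Tween20 (1/5000); inoculated next day with P. cubensis zoospores, 1.0×10^4 units/ml, 16 hr moist chamber at 22° C. Lesion area rate scored 5 days post-inoculation; control value = (1 − treated/untreated onset area rate)×100.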

Phytophthora infestans = assay: whole plant or invertebrate; conditions: Phytophthora infestans, in Solanum lycopersicum, 96 h, read-out: control value (Test 1)
Plasmopara viticola = assay: Test 3: control effect against grape downy mildew; conditions: Plasmopara viticola, 120 h, control value vs untreated section
In short: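 Neomuscat grape seedlings were sprayed with compound at 4 ppm, diluted from a 10% wettable powder in Tween20 solution. One day later they were inoculated with Plasmopara viticola zoospores at 1.0×10^4 units/ml and held moist at 22° C. for 16 hr. Control value was derived from leaf lesion area at 5 days versus untreated leaves.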

## COc1cccc2c1COC(c1csc(C3CCN(C(=O)Cn4nc(C(F)(F)F)cc4C(F)(F)F)CC3)n1)OC2 (stereo not shown) [Compound 1-140, 4-[4-(6-methoxy-1,5-dihydro-3H-2,4-benzodioxepin-3-yl)-2-thiazolyl]-1-[2-[3,5-bis(trifluoromethyl)-1H-pyrazole-1-yl]acetyl]piperidine]
Pythium graminicola
  pest or weed control at 1000 ppm: ≥ 90%
[1]
  pest or weed control at 4 µg/mL: 100%
Phytophthora infestans
  pest or weed control at 4 µg/mL: 100%
Plasmopara viticola
  pest or weed control at 4 µg/mL: 100%

## CC(=O)Oc1cccc2c1COC(c1csc(C3CCN(C(=O)Cn4nc(C(F)(F)F)cc4C)CC3)n1)OC2 (stereo not shown) [Compound 1-144, 4-[4-(6-acetoxy-1,5-dihydro-3H-2,4-benzodioxepin-3-yl)-2-thiazolyl]-1-[2-[5-methyl-3-(trifluoromethyl)-1H-pyrazole-1-yl]acetyl]piperidine]
Pythium graminicola
  pest or weed control at 1000 ppm: ≥ 90%
[1]
  pest or weed control at 4 µg/mL: 100%
Phytophthora infestans
  pest or weed control at 4 µg/mL: 100%
Plasmopara viticola
  pest or weed control at 4 µg/mL: 100%

## CS(=O)(=O)Oc1ccc(F)c2c1COC(c1csc(C3CCN(C(=S)Cn4nc(C(F)F)cc4C(F)F)CC3)n1)OC2 (stereo not shown) [Compound 1-158, 4-[4-(6-fluoro-9-methylsulfonyloxy-1,5-dihydro-3H-2,4-benzodioxepin-3-yl)-2-thiazolyl]-1-[2-[3,5-bis(difluoromethyl)-1H-pyrazole-1-yl]thioacetyl]piperidine]
Pythium graminicola
  pest or weed control at 1000 ppm: ≥ 90%
[1]
  pest or weed control at 4 µg/mL: 100%
Phytophthora infestans
  pest or weed control at 4 µg/mL: 100%
Plasmopara viticola
  pest or weed control at 4 µg/mL: 100%

## Cc1ccc(C)c(CC(=O)N2CCC(c3nc(C4OCc5cccc(OS(C)(=O)=O)c5CO4)cs3)CC2)c1 (stereo not shown) [Compound 2-1, 4-[4-(6-methylsulfonyloxy-1,5-dihydro-3H-2,4-benzodioxepin-3-yl)-2-thiazolyl]-1-[2-(2,5-dimethylphenyl)acetyl]piperidine]
Pythium graminicola
  pest or weed control at 1000 ppm: ≥ 90%
[1]
  pest or weed control at 4 µg/mL: 100%
Phytophthora infestans
  pest or weed control at 4 µg/mL: 100%
Plasmopara viticola
  pest or weed control at 4 µg/mL: 100%

## CS(=O)(=O)Oc1cccc2c1COC(c1csc(C3CCN(C(=O)Cc4cc(Cl)ccc4Cl)CC3)n1)OC2 (stereo not shown) [Compound 2-2, 4-[4-(6-methylsulfonyloxy-1,5-dihydro-3H-2,4-benzodioxepin-3-yl)-2-thiazolyl]-1-[2-(2,5-dichlorophenyl)acetyl]piperidine]
Pythium graminicola
  pest or weed control at 1000 ppm: ≥ 90%
[1]
  pest or weed control at 4 µg/mL: 100%
Phytophthora infestans
  pest or weed control at 4 µg/mL: 100%
Plasmopara viticola
  pest or weed control at 4 µg/mL: 100%

## O=C(Cc1cc(Cl)ccc1Cl)N1CCC(c2nc(C3OCc4c(F)ccc(F)c4CO3)cs2)CC1 [Compound 2-4, 4-[4-(6,9-difluoro-1,5-dihydro-3H-2,4-benzodioxepin-3-yl)-2-thiazolyl]-1-[2-(2,5-dichlorophenyl)acetyl]piperidine]
Pythium graminicola
  pest or weed control at 1000 ppm: ≥ 90%
[1]
  pest or weed control at 4 µg/mL: 100%
Phytophthora infestans
  pest or weed control at 4 µg/mL: 100%
Plasmopara viticola
  pest or weed control at 4 µg/mL: 100%

## Cc1ccc(C)c(NC(=O)N2CCC(c3nc(C4OCc5cccc(OS(C)(=O)=O)c5CO4)cs3)CC2)c1 (stereo not shown) [Compound 2-5, 4-[4-(6-methylsulfonyloxy-1,5-dihydro-3H-2,4-benzodioxepin-3-yl)-2-thiazolyl]-1-[N-(2,5-dimethylphenyl)carbamoyl]piperidine]
Pythium graminicola
  pest or weed control at 1000 ppm: ≥ 90%
[1]
  pest or weed control at 4 µg/mL: 100%
Phytophthora infestans
  pest or weed control at 4 µg/mL: 100%
Plasmopara viticola
  pest or weed control at 4 µg/mL: 100%

## Cc1ccc(C)c(CC(=O)N2CCC(c3nc(C4OCc5cccc(F)c5CO4)cs3)CC2)c1 (stereo not shown) [Compound 2-7, 4-[4-(6-fluoro-1,5-dihydro-3H-2,4-benzodioxepin-3-yl)-2-thiazolyl]-1-[2-(2,5-dimethylphenyl)acetyl]piperidine]
Pythium graminicola
  pest or weed control at 1000 ppm: ≥ 90%
[1]
  pest or weed control at 4 µg/mL: 100%
Phytophthora infestans
  pest or weed control at 4 µg/mL: 100%
Plasmopara viticola
  pest or weed control at 4 µg/mL: 100%

## Cc1ccc(C)c(CC(=O)N2CCC(c3nc(C4OCc5ccc(F)cc5CO4)cs3)CC2)c1 (stereo not shown) [Compound 2-10, 4-[4-(7-fluoro-1,5-dihydro-3H-2,4-benzodioxepin-3-yl)-2-thiazolyl]-1-[2-(2,5-dimethylphenyl)acetyl]piperidine]
Pythium graminicola
  pest or weed control at 1000 ppm: ≥ 90%
[1]
  pest or weed control at 4 µg/mL: 100%
Phytophthora infestans
  pest or weed control at 4 µg/mL: 80%
Plasmopara viticola
  pest or weed control at 4 µg/mL: 100%

## Cc1ccc(C)c(CC(=O)N2CCC(c3nc(C4OCc5ccccc5C(C)O4)cs3)CC2)c1 (stereo not shown) [Compound 2-13, 4-[4-(1-methyl-1,5-dihydro-3H-2,4-benzodioxepin-3-yl)-2-thiazolyl]-1-[2-(2,5-dimethylphenyl)acetyl]piperidine]
Pythium graminicola
  pest or weed control at 1000 ppm: ≥ 90%
[1]
  pest or weed control at 4 µg/mL: 100%
Phytophthora infestans
  pest or weed control at 4 µg/mL: 50%
Plasmopara viticola
  pest or weed control at 4 µg/mL: 100%

## Cc1ccc(C)c(CC(=O)N2CCC(c3nc(C4OCc5ccc([N+](=O)[O-])cc5CO4)cs3)CC2)c1 (stereo not shown) [Compound 2-18, 4-[4-(7-nitro-1,5-dihydro-3H-2,4-benzodioxepin-3-yl)-2-thiazolyl]-1-[2-(2,5-dimethylphenyl)acetyl]piperidine]
Pythium graminicola
  pest or weed control at 1000 ppm: ≥ 90%
[1]
  pest or weed control at 4 µg/mL: 100%
Phytophthora infestans
  pest or weed control at 4 µg/mL: 100%
Plasmopara viticola
  pest or weed control at 4 µg/mL: 100%

## O=C(Cc1cc(Cl)ccc1Cl)N1CCC(c2nc(C3OCc4cccc(Br)c4CO3)cs2)CC1 (stereo not shown) [Compound 2-19, 4-[4-(6-bromo-1,5-dihydro-3H-2,4-benzodioxepin-3-yl)-2-thiazolyl]-1-[2-(2,5-dichlorophenyl)acetyl]piperidine]
Pythium graminicola
  pest or weed control at 1000 ppm: ≥ 90%
[1]
  pest or weed control at 4 µg/mL: 100%
Phytophthora infestans
  pest or weed control at 4 µg/mL: 100%
Plasmopara viticola
  pest or weed control at 4 µg/mL: 100%

## COc1ccc(Cl)c2c1COC(c1csc(C3CCN(C(=O)Cc4cc(C)ccc4C)CC3)n1)OC2 (stereo not shown) [Compound 2-20, 4-[4-(6-chloro-9-methoxy-1,5-dihydro-3H-2,4-benzodioxepin-3-yl)-2-thiazolyl]-1-[2-(2,5-dimethylphenyl)acetyl]piperidine]
Pythium graminicola
  pest or weed control at 1000 ppm: ≥ 90%
[1]
  pest or weed control at 4 µg/mL: 100%
Phytophthora infestans
  pest or weed control at 4 µg/mL: 100%
Plasmopara viticola
  pest or weed control at 4 µg/mL: 100%

## O=C(Cc1cc(Cl)ccc1Cl)N1CCC(c2nc(C3OCc4cccc(Cl)c4CO3)cs2)CC1 (stereo not shown) [Compound 2-22, 4-[4-(6-chloro-1,5-dihydro-3H-2,4-benzodioxepin-3-yl)-2-thiazolyl]-1-[2-(2,5-dichlorophenyl)acetyl]piperidine]
Pythium graminicola
  pest or weed control at 1000 ppm: ≥ 90%
[1]
  pest or weed control at 4 µg/mL: 100%
Phytophthora infestans
  pest or weed control at 4 µg/mL: 100%
Plasmopara viticola
  pest or weed control at 4 µg/mL: 100%

## COc1ccc(Cl)c2c1COC(c1csc(C3CCN(C(=O)Cc4cc(Cl)ccc4Cl)CC3)n1)OC2 (stereo not shown) [Compound 2-23, 4-[4-(6-chloro-9-methoxy-1,5-dihydro-3H-2,4-benzodioxepin-3-yl)-2-thiazolyl]-1-[2-(2,5-dichlorophenyl)acetyl]piperidine]
Pythium graminicola
  pest or weed control at 1000 ppm: ≥ 90%
[1]
  pest or weed control at 4 µg/mL: 100%
Phytophthora infestans
  pest or weed control at 4 µg/mL: 100%
Plasmopara viticola
  pest or weed control at 4 µg/mL: 100%

## O=C(Cc1cc(Cl)ccc1Cl)N1CCC(c2nc(C3OCc4c(F)c(F)c(F)c(F)c4CO3)cs2)CC1 [Compound 2-29, 4-[4-(6,7,8,9-tetrafluoro-1,5-dihydro-3H-2,4-benzodioxepin-3-yl)-2-thiazolyl]-1-[2-(2,5-dichlorophenyl)acetyl]piperidine]
Pythium graminicola
  pest or weed control at 1000 ppm: ≥ 90%
[1]
  pest or weed control at 4 µg/mL: 100%
Phytophthora infestans
  pest or weed control at 4 µg/mL: 100%
Plasmopara viticola
  pest or weed control at 4 µg/mL: 100%

## Cc1ccc(C)c(CC(=O)N2CCC(c3nc(C4OCc5cccc([N+](=O)[O-])c5CO4)cs3)CC2)c1 (stereo not shown) [Compound 2-39, 4-[4-(6-nitro-1,5-dihydro-3H-2,4-benzodioxepin-3-yl)-2-thiazolyl]-1-[2-(2,5-dimethylphenyl)acetyl]piperidine]
Pythium graminicola
  pest or weed control at 1000 ppm: ≥ 90%
[1]
  pest or weed control at 4 µg/mL: 100%
Phytophthora infestans
  pest or weed control at 4 µg/mL: 100%
Plasmopara viticola
  pest or weed control at 4 µg/mL: 100%

## COc1ccc(C)c2c1COC(c1csc(C3CCN(C(=O)Cc4cc(C)ccc4C)CC3)n1)OC2 (stereo not shown) [Compound 2-45, 4-[4-(6-methoxy-9-methyl-1,5-dihydro-3H-2,4-benzodioxepin-3-yl)-2-thiazolyl]-1-[2-(2,5-dimethylphenyl)acetyl]piperidine]
Pythium graminicola
  pest or weed control at 1000 ppm: ≥ 90%
[1]
  pest or weed control at 4 µg/mL: 100%
Phytophthora infestans
  pest or weed control at 4 µg/mL: 90%
Plasmopara viticola
  pest or weed control at 4 µg/mL: 100%

## O=C(Cc1cc(Cl)ccc1Cl)N1CCC(c2nc(C3OCc4cccc(OC(F)F)c4CO3)cs2)CC1 (stereo not shown) [Compound 2-48, 4-[4-[6-(difluoromethoxy)-1,5-dihydro-3H-2,4-benzodioxepin-3-yl]-2-thiazolyl]-1-[2-(2,5-dichlorophenyl)acetyl]piperidine]
Pythium graminicola
  pest or weed control at 1000 ppm: ≥ 90%
[1]
  pest or weed control at 4 µg/mL: 100%
Phytophthora infestans
  pest or weed control at 4 µg/mL: 100%
Plasmopara viticola
  pest or weed control at 4 µg/mL: 100%

Reference: patent US10104891B2 (priority 2014, dated 2018)
